{"source": "patent US12516288B2", "about": "“Method for producing enteric neural precursors” (Kyoto University, priority 2018, dated 2026)", "molecules": {"B1": {"name": "NRG1: EGF-like growth factor encoded by NRG1 gene; activates downstream signaling by binding to ERBB3 and ERBB4 (protein, listed as Homo sapiens)", "chain": "MSERKEGRGKGKGKKKERGSGKKPESAAGSQSPALPPRLKEMKSQESAAGSKLVLRCETSSEYSSLRFKWFKNGNELNRKNKPQNIKIQKKPGKSELRINKASLADSGEYMCKVISKLGNDSASANITIVESNEIITGMPASTEGAYVSSESPIRISVSTEGANTSSSTSTSTTGTSHLVKCAEKEKTFCVNGGECFMVKDLSNPSRYLCKCPNEFTGDRCQNYVMASFYKHLGIEFMEAEELYQKRVLTITGICIALLVVGIMCVVAYCKTKKQRKKLHDRLRQSLRSERNNMMNIANGPHHPNPPPENVQLVNQYVSKNVISSEHIVEREAETSFSTSHYTSTAHHSTTVTQTPSHSWSNGHTESILSESHSVIVMSSVENSRHSSPTGGPRGRLNGTGGPRECNSFLRHARETPDSYRDSPHSERYVSAMTTPARMSPVDFHTPSSPKSPPSEMSPPVSSMTVSMPSMAVSPFMEEERPLLLVTPPRLREKKFDHHPQQFSSFHHNPAHDSNSLPASPLRIVEDEEYETTQEYEPAQEPVKKLANSRRAKRTKPNGHIANRLEVDSNTSSQSSNSESETEDERVGEDTPFLGIQNPLAASLEATPAFRLADSRTNPAGRFSTQEEIQARLSSVIANQDPIAV"}, "B2": {"name": "GDNF: factor encoded by GDNF gene; acts as an agonist of GFRα1 and RET (protein, UniProt P39905 78-211, looked up)", "Glial cell line-derived …": "SPDKQMAVLPRRERNRQAAAANPENSRGKGRRGQRGKNRGCVLTAIHLNVTDLGLGYETKEELIFRYCSGSCDAAETTYDKILKNLSRNRRLVSDKVGQACCRPIAFDDDLSFLDDNLVYHILRKHSAKRCGCI"}}, "key": {"[1]": {"test_system": "artificial intestinal tract formed from an intestinal organoid", "experiment": "Organ bath assay: contractile and relaxant responses of artificial intestinal tract to electrical stimulation", "set-up": "species or system human"}, "vagal neural crest cells": {"test_system": "vagal neural crest cells", "experiment": "Study on composition of enteric neural precursor medium (NRG1 and/or GDNF not added)", "type": "cell-based, human", "conditions": "for cell proliferation: enteric neural precursor medium without the named factor (factor-free conditions)", "experimental": "The medium was aspirated and replaced with PBS. Then, the cells were detached using a cell scraper. The detached cell mass was dissociated by pipetting in Accutase® (Innovative Cell Technologies, Inc.). Then, MACS® Buffer (Miltenyi Biotec) was added thereto, and the cells were prepared into single cells through a 40 µm cell strainer. The obtained cell suspension was centrifuged at 300×g for 3 minutes. Then, the supernatant was removed, and the cells were suspended in an enteric neural precursor medium. The enteric neural precursor medium used was a mixture of solutions A and B of Stem Fit® AK03N containing 10 μM SB431542 (FUJIFILM Wako Pure Chemical Corp.), 1 μM CHIR99021 (Axon MedChem), 1 μM retinoic acid (FUJIFILM Wako Pure Chemical Corp.), 100 ng/mL neuregulin 1 (NRG1) (PeproTech, Inc.) and […] glial cell-derived neurotrophic factor (GDNF) (FUJIFILM Wako Pure Chemical Corp.). For adherent culture, Matrigel® (Corning Inc.) was added at 2% to the cell suspension, which was then cultured using a multiwell plate (Corning Inc.). For suspension culture, a multiwell plate (Corning Inc.) treated for low cell adhesion was used. The culture in both cases was carried out at 37° C. under 5% CO2.\nVagal neural crest cells were cultured in an enteric neural precursor medium under the same conditions as in Test Example 4 except that NRG1 and/or GDNF was not added to the enteric neural precursor medium. The cells were observed under a fluorescence microscope (BZ-X700, Keyence Corp.). Also, flow cytometry analysis was conducted by the same method as in Test Example 5."}}, "note": "Where a name gives a salt, the structure may show the parent alone. Read-outs that look alike come from different tables or passages of the source."}
{"molecule": "CC(COc1ccccc1)N(CCCl)Cc1ccccc1", "note": "(centres unmarked) [phenoxybenzamine hydrochloride]", "values": [{"measurement": "contractile response to electrical stimulation", "setting": "[1]", "result": "partially canceled"}]}
{"molecule": "CN1[C@@H]2CC[C@H]1C[C@@H](OC(=O)C(CO)c1ccccc1)C2", "note": "(some centres unmarked) [atropine sulfate monohydrate]", "values": [{"measurement": "contractile response to electrical stimulation", "setting": "[1]", "result": "partially canceled"}]}
{"molecule": "COC(=O)[C@@H](N)CCCN=C(N)N[N+](=O)[O-].Cl", "note": "[NG-nitro-L-arginine methyl ester hydrochloride]", "values": [{"measurement": "relaxant response dependent on electrical stimulation", "setting": "[1]; after atropine, phenoxybenzamine, propranolol, concentration not given", "result": "disappeared"}]}
{"molecule": "NC1=N[C@H](O)[C@H]2[C@H]3O[C@]4(O)O[C@@H]([C@@H](O)[C@@]2(N1)[C@@H]4O)[C@]3(O)CO", "note": "[tetrodotoxin]", "values": [{"measurement": "cancelation of the contractile response by atropine, phenoxybenzamine or propranolol", "setting": "[1]", "result": "disappeared"}]}
{"molecule": "CC(C)NCC(O)COc1cccc2ccccc12", "note": "(centres unmarked) [propranolol hydrochloride]", "values": [{"measurement": "contractile response to electrical stimulation", "setting": "[1]; addition of 10 μM, strip of artificial intestinal tract in Krebs solution", "result": "partially canceled"}]}
{"molecule": "B1", "values": [{"measurement": "cell number necessary for conducting flow cytometry", "setting": "vagal neural crest cells; enteric neural precursor medium without the named factor", "result": "not obtained"}, {"measurement": "cell proliferation", "setting": "vagal neural crest cells", "result": "very slow"}]}
{"molecule": "B2", "values": [{"measurement": "cell proliferation", "setting": "vagal neural crest cells", "result": "slower than that under the conditions involving GDNF"}]}
